Measurements from ChEMBL document CHEMBL6153078, “Design, synthesis, and biological evaluation of imidazolidinone derivatives as potent PPARα/δ agonists for the treatment of cholestatic liver diseases” (Eur J Med Chem, 2025).
Blank lines part the entries; values can stand above or below the molecule they belong to.

Columns and labels:
Format in all cases: cell-based
[1] = biological target: T1, Peroxisome proliferator-activated receptor alpha (Homo sapiens, UniProt Q07869); experiment: Agonist activity at GAL4-fused human PPAR-alpha transfected in African green monkey COS7 cells assessed transcriptional activation incubated for 16 hrs by Luciferase assay
T1 sequence (Q07869 whole entry): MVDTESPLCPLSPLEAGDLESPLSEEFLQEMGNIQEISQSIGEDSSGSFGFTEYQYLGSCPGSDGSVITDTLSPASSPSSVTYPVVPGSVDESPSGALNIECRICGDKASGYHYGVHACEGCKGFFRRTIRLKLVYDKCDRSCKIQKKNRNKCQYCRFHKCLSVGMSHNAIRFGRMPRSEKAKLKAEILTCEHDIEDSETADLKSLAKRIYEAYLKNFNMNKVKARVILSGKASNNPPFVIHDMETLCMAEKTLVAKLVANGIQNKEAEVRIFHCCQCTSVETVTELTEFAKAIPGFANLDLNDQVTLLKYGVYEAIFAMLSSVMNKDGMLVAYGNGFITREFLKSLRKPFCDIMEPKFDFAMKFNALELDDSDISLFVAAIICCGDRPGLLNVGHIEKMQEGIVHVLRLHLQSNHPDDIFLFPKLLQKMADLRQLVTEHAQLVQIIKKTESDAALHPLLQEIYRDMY

[2] = biological target: T2, Peroxisome proliferator-activated receptor gamma (Homo sapiens, UniProt P37231); experiment: Agonist activity at GAL4-fused human PPAR-gamma transfected in African green monkey COS7 cells assessed transcriptional activation incubated for 16 hrs by Luciferase assay
T2 sequence (P37231 whole entry): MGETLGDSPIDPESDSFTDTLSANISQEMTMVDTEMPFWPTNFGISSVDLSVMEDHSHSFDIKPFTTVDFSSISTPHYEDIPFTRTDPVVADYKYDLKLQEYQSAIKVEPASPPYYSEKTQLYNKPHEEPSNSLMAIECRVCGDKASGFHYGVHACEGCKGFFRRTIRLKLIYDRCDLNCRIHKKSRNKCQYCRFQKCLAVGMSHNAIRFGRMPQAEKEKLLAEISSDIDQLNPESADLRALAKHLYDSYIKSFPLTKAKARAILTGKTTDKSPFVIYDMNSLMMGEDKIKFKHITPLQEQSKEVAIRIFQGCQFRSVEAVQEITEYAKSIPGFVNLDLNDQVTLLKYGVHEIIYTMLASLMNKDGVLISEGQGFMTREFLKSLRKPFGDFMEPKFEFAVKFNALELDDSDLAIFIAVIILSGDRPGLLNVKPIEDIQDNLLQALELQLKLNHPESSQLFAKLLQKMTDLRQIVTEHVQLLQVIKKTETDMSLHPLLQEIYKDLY

[3] = biological target: T3, Peroxisome proliferator-activated receptor delta (Homo sapiens, UniProt Q03181); experiment: Agonist activity at GAL4-fused human PPAR-delta transfected in African green monkey COS7 cells assessed transcriptional activation incubated for 16 hrs by Luciferase assay
T3 sequence (Q03181 whole entry): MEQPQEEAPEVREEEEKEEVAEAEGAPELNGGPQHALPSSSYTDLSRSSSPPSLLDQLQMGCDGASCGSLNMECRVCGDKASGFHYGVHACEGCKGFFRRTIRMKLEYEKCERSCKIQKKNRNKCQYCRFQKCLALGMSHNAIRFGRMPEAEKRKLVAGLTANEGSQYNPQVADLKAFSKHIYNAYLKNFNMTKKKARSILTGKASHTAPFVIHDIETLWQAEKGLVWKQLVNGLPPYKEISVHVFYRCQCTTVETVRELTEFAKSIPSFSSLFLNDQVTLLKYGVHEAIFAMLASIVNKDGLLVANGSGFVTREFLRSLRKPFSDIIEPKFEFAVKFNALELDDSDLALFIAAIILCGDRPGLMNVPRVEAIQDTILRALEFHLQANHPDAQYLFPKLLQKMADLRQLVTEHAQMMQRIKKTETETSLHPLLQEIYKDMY

SMILES: CCc1ccc(N2CCN(Cc3cc(C)c(OC(C)(C)C(=O)O)c(C)c3)C2=O)cc1
EC50 [1]: 7.3 nM | EC50 [2]: 1290 nM

SMILES: Cc1cc(CN2CCN(c3cccc(C(F)(F)F)c3)C2=O)cc(C)c1OC(C)(C)C(=O)O
EC50 [1]: 14.2 nM | EC50 [2]: 884 nM | EC50 [3]: 40.9 nM

SMILES: Cc1cc(CN2CCN(c3ccc(F)cc3)C2=O)cc(C)c1OC(C)(C)C(=O)O
EC50 [1]: 89.5 nM | EC50 [2]: 2130 nM | EC50 [3]: 39 nM

SMILES: Cc1cc(CN2CCN(c3ccc(OC(F)(F)F)cc3)C2=O)cc(C)c1OC(C)(C)C(=O)O
EC50 [1]: 4.7 nM | EC50 [2]: 416 nM | EC50 [3]: 36.9 nM

SMILES: CSc1ccc(C(=O)/C=C/c2cc(C)c(OC(C)(C)C(=O)O)c(C)c2)cc1 [ELAFIBRANOR]
EC50 [1]: 888 nM | EC50 [2]: 1570 nM

SMILES: Cc1cc(CN2CCN(c3ccc(C(C)(C)C)cc3)C2=O)cc(C)c1OC(C)(C)C(=O)O
EC50 [3]: > 5000 nM

SMILES: CC(C)(Oc1ccc(CN2CCN(c3ccc(C(F)(F)F)cc3)C2=O)cc1)C(=O)O
EC50 [2]: > 5000 nM

SMILES: Cc1ccc(N2CCN(Cc3cc(C)c(OC(C)(C)C(=O)O)c(C)c3)C2=O)cc1
EC50 [1]: 40.4 nM | EC50 [2]: 1200 nM

SMILES: Cc1cc(Cn2ncn(-c3ccc(OC(F)(F)F)cc3)c2=O)cc(C)c1OC(C)(C)C(=O)O
EC50 [1]: 8.5 nM

More lines, now with the values ahead:

EC50 [1]: 436 nM | EC50 [3]: 260 nM
SMILES: Cc1cc(CN2CCN(c3ccccc3)C2=O)cc(C)c1OC(C)(C)C(=O)O

EC50 [1]: 1020 nM
SMILES: Cc1cc(CN2CCN(c3ccc(Cl)cc3)C2=O)cc(C)c1OC(C)(C)C(=O)O

EC50 [1]: 121 nM | EC50 [2]: 2580 nM | EC50 [3]: 263 nM
SMILES: COc1ccc(N2CCN(Cc3cc(C)c(OC(C)(C)C(=O)O)c(C)c3)C2=O)cc1

EC50 [1]: > 5000 nM | EC50 [3]: > 5000 nM
SMILES: Cc1cc(CN2CCN(c3ccccc3C(F)(F)F)C2=O)cc(C)c1OC(C)(C)C(=O)O

EC50 [1]: 175 nM | EC50 [2]: > 5000 nM
SMILES: Cc1cc(CN2CCN(c3ccc(C(F)(F)F)cc3)C2=O)ccc1OC(C)(C)C(=O)O

EC50 [3]: 69.6 nM
SMILES: Cc1cc(CN2CCN(c3ccc(C(C)C)cc3)C2=O)cc(C)c1OC(C)(C)C(=O)O
